The results in this text go back to patent publication US20240150338A1, “COMPOUNDS AND USE THEREOF FOR TREATMENT OF NEURODEGENERATIVE, DEGENERATIVE AND METABOLIC DISORDERS” (University of Florida Research Foundation, Incorporated, priority 2021, published 2024).

The subject of data set [1] is PK1 neuroblastoma cells exposed to TPrP. As to the kind of experiment: cells. It is filed as cell-based. As to conditions: Neuroblastoma cell, 96 h, read-out: TPrP EC50.
Data set [2] is described as follows: Microsomal stability assay. The following applies: 1 mg/ml human hepatic microsomes, 37° C., half-life by LC-MS/MS; yes = stability ≥15 minutes. In kind it is in vitro ADME. As for the experimental part:
The metabolic stability of some test compounds was determined in hepatic human and mouse microsomes. The compound was incubated with 1 mg/ml human or mouse hepatic microsomes at 37° C. with continuous shaking. Aliquots were removed at various time points between 5 minutes and 2 hours and acetonitrile was added to quench the reactions and precipitate the proteins. Samples were then centrifuged through 0.45 μm filter plates and half-lives were determined by LC-MS/MS.

Molecules are shown by their SMILES.

For `Cc1cc(-c2nc(Nc3ccc(S(C)(=O)=O)cc3)sc2CO)ccn1` [SR-33799, (4-(2-Methylpyridin-4-yl)-2-((4-(methylsulfonyl)phenyl)amino)thiazol-5-yl)methanol], in data set [1], the EC50 (commonly the concentration that produces a half-maximal response) is 0.06 µM. In data set [2], the “Stabilty in human microsomes ≥ 15 minutes” value (shortened to “Stabilty”) is listed as “yes”.

As for `COc1cc(-c2nc(Nc3ccc(S(C)(=O)=O)c(Cl)c3)sc2CO)cc(OC)n1` [SR-33800, (2-((3-Chloro-4-(methylsulfonyl)phenyl)amino)-4-(2,6-dimethoxypyridin-4-yl)thiazol-5-yl)methanol], the EC50 in data set [1] came out at 0.055 µM. Further, in data set [2], the “Stabilty” value was “yes”.

Take `Cc1cc(-c2nc(Nc3ccc(S(=O)(=O)O)cc3)sc2CO)cc(C)n1` [SR-33801, 4-((4-(2,6-Dimethylpyridin-4-yl)-5-(hydroxymethyl)thiazol-2-yl)amino)benzenesulfonic acid]: the EC50 in data set [1] came out at 0.04 µM. Also, the “Stabilty” value in data set [2] is on record as “yes”.

On to `O=S(=O)(O)c1ccc(Nc2nc(-c3ccncc3)c(CO)s2)cc1` [SR-33878, 4-((5-(Hydroxymethyl)-4-(pyridin-4-yl)thiazol-2-yl)amino)benzenesulfonic acid], for which the concentration for a half-maximal effect (EC50) in data set [1] was determined as 0.3 µM. For the same compound, the “Stabilty” value in data set [2] was “yes”.

For `CC(C)NS(=O)(=O)c1ccc(-c2csc(Nc3ccc(S(N)(=O)=O)cc3)n2)cc1` [SR-34770, N-isopropyl-4-(2-((4-sulfamoylphenyl)amino)thiazol-4-yl)benzenesulfonamide], the concentration giving a half-maximal response (EC50) in data set [1] came out at 0.3 µM. Besides, the “Stabilty” value in data set [2] was “yes”.

As for `NS(=O)(=O)c1ccc(Nc2nc(-c3ccc(S(=O)(=O)Nc4ccccc4)cc3)c(CO)s2)cc1` [SR-34773, 4-(5-(Hydroxymethyl)-2-((4-sulfamoylphenyl)amino)thiazol-4-yl)-N-phenylbenzenesulfonamide], in data set [1], the EC50 came out at 0.3 µM. Moreover, the “Stabilty” value in data set [2] is on record as “yes”.

For the compound `CC(C)NS(=O)(=O)c1ccc(-c2nc(Nc3ccc(S(N)(=O)=O)cc3)sc2CO)cc1` [SR-34776, 4-(5-(Hydroxymethyl)-2-((4-sulfamoylphenyl)amino)thiazol-4-yl)-N-isopropylbenzenesulfonamide], the EC50 in data set [1] came out at 0.1 µM. Besides, the “Stabilty” value in data set [2] is reported as “yes”.

For the compound `Cc1cc(-c2nc(Nc3ccc(S(C)(=O)=O)cc3)sc2CCl)ccn1` [SR-34893, 5-(Chloromethyl)-4-(2-methylpyridin-4-yl)-N-(4-(methylsulfonyl)phenyl)thiazol-2-amine], in data set [1], the EC50 is 0.4 µM. Further, the “Stabilty” value in data set [2] was “yes”.

On to `CNS(=O)(=O)c1ccc(-c2csc(Nc3ccc(S(C)(=O)=O)cc3)n2)cc1` [SR-34964, N-methyl-4-(2-((4-(methylsulfonyl)phenyl)amino)thiazol-4-yl)benzenesulfonamide], for which the EC50 in data set [1] was determined as 0.105 µM. In data set [2], the “Stabilty” value is reported as “yes”.

`Cc1cc(-c2csc(Nc3ccc(S(C)(=O)=O)c(F)c3)n2)cc(C)n1` [SR-34974, 4-(2,6-Dimethylpyridin-4-yl)-N-(3-fluoro-4-(methylsulfonyl)phenyl)thiazol-2-amine]: the EC50 in data set [1] came out at 0.1 µM. In data set [2], the “Stabilty” value is recorded as “yes”.

Regarding `CS(=O)(=O)c1ccc(Nc2nc(-c3ccnc(Cl)c3)cs2)cc1C(F)(F)F` [SR-34982, 4-(2-Chloropyridin-4-yl)-N-(4-(methylsulfonyl)-3-(trifluoromethyl)phenyl)thiazol-2-amine], in data set [1], the EC50 was 0.12 µM. The “Stabilty” value in data set [2] is recorded as “yes”.

On to `Cc1cc(-c2csc(Nc3ccc(S(C)(=O)=O)c(C(F)(F)F)c3)n2)cc(C)n1` [SR-34984, 4-(2,6-Dimethylpyridin-4-yl)-N-(4-(methylsulfonyl)-3-(trifluoromethyl)phenyl)thiazol-2-amine], for which the EC50 in data set [1] turned out to be 0.06 µM. In addition, the “Stabilty” value in data set [2] is reported as “yes”.

Consider `COc1cc(-c2csc(Nc3ccc(S(C)(=O)=O)c(Cl)c3)n2)ccn1` [SR-34993, N-(3-Chloro-4-(methylsulfonyl)phenyl)-4-(2-methoxypyridin-4-yl)thiazol-2-amine], for which, in data set [1], the EC50 stood at 0.125 µM. For the same compound, the “Stabilty” value in data set [2] was “yes”.

Regarding `CNS(=O)(=O)c1ccc(-c2csc(Nc3ccc(C(F)(F)F)cc3)n2)cc1` [SR-35726, N-methyl-4-(2-((4-(trifluoromethyl)phenyl)amino)thiazol-4-yl)benzenesulfonamide], the EC50 in data set [1] is 0.48 µM. For the same compound, the “Stabilty” value in data set [2] is recorded as “yes”.

`CNS(=O)(=O)c1ccc(-c2csc(Nc3ccc(CS(C)(=O)=O)cc3)n2)cc1` [SR-35727, N-methyl-4-(2-((4-((methylsulfonyl)methyl)phenyl)amino)thiazol-4-yl)benzenesulfonamide]: in data set [1], the EC50 came to 0.018 µM. Besides, in data set [2], the “Stabilty” value is on record as “yes”.

`CS(=O)(=O)c1ccc(-c2csc(Nc3ccc(S(N)(=O)=O)cc3)n2)cc1` [SR-35729, 4-((4-(4-(Methylsulfonyl)phenyl)thiazol-2-yl)amino)benzenesulfonamide]: the EC50 in data set [1] worked out at 0.0016 µM. Also, in data set [2], the “Stabilty” value is on record as “yes”.

`CS(=O)(=O)c1ccc(Nc2nc(-c3ccc(S(C)(=O)=O)cc3)cs2)cc1` [SR-35730, N,4-bis(4-(methylsulfonyl)phenyl)thiazol-2-amine]: in data set [1], the EC50 is 0.004 µM. In data set [2], the “Stabilty” value was “yes”.

`Cc1ccc(-c2csc(Nc3ccc(S(C)(=O)=O)cc3)n2)cc1` [SR-35731, N-(4-(methylsulfonyl)phenyl)-4-(p-tolyl)thiazol-2-amine]: the EC50 in data set [1] was greater than 0.5 µM. Besides, the “Stabilty” value in data set [2] is reported as “yes”.

Consider `CS(=O)(=O)c1ccc(Nc2nc(-c3ccc(C(F)(F)F)cc3)cs2)cc1` [SR-35733, N-(4-(Methylsulfonyl)phenyl)-4-(4-(trifluoromethyl)phenyl)thiazol-2-amine], for which the EC50 in data set [1] is greater than 0.5 µM. Besides, the “Stabilty” value in data set [2] is given as “yes”.

`CNS(=O)(=O)c1ccc(-c2csc(Nc3ccc(S(C)(=O)=O)c(F)c3)n2)cc1` [SR-35735, 4-(2-((3-Fluoro-4-(methylsulfonyl)phenyl)amino)thiazol-4-yl)-N-methylbenzenesulfonamide]: the half-maximal effective concentration (EC50) in data set [1] was 0.006 µM. Besides, the “Stabilty” value in data set [2] was “yes”.

On to `CNS(=O)(=O)c1ccc(-c2csc(Nc3ccc(S(C)(=O)=O)c(Cl)c3)n2)cc1` [SR-35736, 4-(2-((3-Chloro-4-(methylsulfonyl)phenyl)amino)thiazol-4-yl)-N-methylbenzenesulfonamide], for which the EC50 in data set [1] was determined as 0.005 µM. Also, the “Stabilty” value in data set [2] is “yes”.

For `Cc1cc(-c2csc(Nc3ccc(CS(C)(=O)=O)cc3)n2)ccn1` [SR-35786, 4-(2-Methylpyridin-4-yl)-N-(4-((methylsulfonyl)methyl)phenyl)thiazol-2-amine], in data set [1], the EC50 turned out to be 0.014 µM. Also, in data set [2], the “Stabilty” value is listed as “yes”.

`COc1cccc(-c2csc(Nc3ccc(S(C)(=O)=O)cc3)n2)c1` [SR-35788, 4-(3-Methoxyphenyl)-N-(4-(methylsulfonyl)phenyl)thiazol-2-amine]: the EC50 in data set [1] stood at 0.17 µM. In addition, the “Stabilty” value in data set [2] was “yes”.

On to `CC(C)c1ccc(-c2csc(Nc3ccc(S(C)(=O)=O)cc3)n2)cc1` [SR-35789, 4-(4-Isopropylphenyl)-N-(4-(methylsulfonyl)phenyl)thiazol-2-amine], for which, in data set [1], the EC50 was greater than 0.5 µM. Besides, in data set [2], the “Stabilty” value was “yes”.
